# Reference: patent publication US8008488B2 (Abbott GmbH & Co. KG, priority 2003, dated 2011)
# Assays:
# [1] = molecular target: T1, human dopamine D3 receptors (Homo sapiens, UniProt P35462); test: Dopamine D3 receptor binding, displacement of [125I]-iodosulpride; details: membranes from HEK-293 cells with stably expressed human D3 receptors, 0.1 nM [125I]-iodosulpride
# T1 construct: expressed in transfected cells
# Protocol: (§1) The substance to be tested was dissolved either in methanol/Chremophor® (BASF-AG) or in dimethyl sulfoxide and then diluted with water to the desired concentration.
# (§2) Triplicate mixtures were carried out.
# The incubation buffer contained 50 mM Tris, 120 mM NaCl, 5 mM KCl, 2 mM CaCl2, 2 mM MgCl2 and 0.1% bovine serum albumin, 10 μM quinolone, 0.1% ascorbic acid (prepared fresh each day). The buffer was adjusted to pH 7.4 with HCl.
# (§3) Measurement and Evaluation:
# (§4) After incubation at 25° C. for 60 minutes, the mixtures were filtered under vacuum through Whatman GF/B glass fiber filters using a cell harvester. The filters were transferred by a filter transfer system into scintillation vials. After addition of 4 ml of Ultima Gold® (Packard), the samples were shaken for one hour and then the radioactivity was calculated in a beta counter (Packard, Tricarb 2000 or 2200CA). The cp values were converted into dpm by means of a standard quench series with the aid of the instrument's own program.
# (§5) Evaluation of the inhibition plots took place by iterative nonlinear regression analysis using the Statistical Analysis System (SAS) similar to the “LIGAND” program described by Munson and Rodbard.
# [2] = molecular target: T2, human dopamine D2L receptors (long isoform) (Homo sapiens, UniProt P14416); test: Dopamine D2L receptor binding, displacement of [125I]-iodospiperone; details: *Ki(D2L)/Ki(D3), HEK-293 membranes, 0.01 nM [125I]-iodospiperone
# T2 construct: expressed in transfected cells
# Protocol: as §1, §2
# The incubation buffer contained 50 mM Tris, 120 mM NaCl, 5 mM KCl, 2 mM CaCl2, 2 mM MgCl2 and 0.1% bovine serum albumin. The buffer was adjusted to pH 7.4 with HCl.
# as §3, §4, §5
# T2 sequence (P14416 whole entry, canonical isoform): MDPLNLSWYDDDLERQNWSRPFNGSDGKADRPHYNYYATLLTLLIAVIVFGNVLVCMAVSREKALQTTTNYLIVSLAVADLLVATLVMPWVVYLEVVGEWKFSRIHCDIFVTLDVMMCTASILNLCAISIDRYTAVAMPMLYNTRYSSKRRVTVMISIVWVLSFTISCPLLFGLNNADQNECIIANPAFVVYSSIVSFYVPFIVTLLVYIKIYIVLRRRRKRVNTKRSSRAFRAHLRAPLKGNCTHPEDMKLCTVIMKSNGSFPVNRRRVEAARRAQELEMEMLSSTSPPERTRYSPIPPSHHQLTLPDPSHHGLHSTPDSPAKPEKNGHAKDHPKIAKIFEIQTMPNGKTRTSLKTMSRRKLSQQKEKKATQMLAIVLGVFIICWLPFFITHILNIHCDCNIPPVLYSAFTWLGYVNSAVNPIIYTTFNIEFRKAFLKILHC
# T1 sequence (P35462 whole entry): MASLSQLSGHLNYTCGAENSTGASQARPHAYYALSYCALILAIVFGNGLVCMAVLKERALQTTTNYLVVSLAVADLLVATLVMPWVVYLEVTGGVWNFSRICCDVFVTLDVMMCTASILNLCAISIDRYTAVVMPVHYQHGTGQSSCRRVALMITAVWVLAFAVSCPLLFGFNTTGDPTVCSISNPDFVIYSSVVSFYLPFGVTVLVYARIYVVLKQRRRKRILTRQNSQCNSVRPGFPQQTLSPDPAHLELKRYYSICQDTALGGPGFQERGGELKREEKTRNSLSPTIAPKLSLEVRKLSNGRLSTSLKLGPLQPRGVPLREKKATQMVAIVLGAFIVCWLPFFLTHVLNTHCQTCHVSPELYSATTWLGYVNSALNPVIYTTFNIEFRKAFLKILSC
Ki [1] [nM],Selectivity D3 vs. D2L* [2],Compound
2.97,65,"CCCc1cc(N2CCN(C(C)CCCn3cc(C)c(=O)[nH]c3=O)CC2)nc(C(C)(C)C)n1 (single isomer, unassigned; (+)) [Example 63, (+)-1-{4-[4-(2-tert-Butyl-6-propylpyrimidin-4-yl)piperazin-1-yl]pentyl}-5-methyl-1H-pyrimidine-2,4-dione]"
1.62,59,"CCCc1cc(N2CCN(CCCCn3ccc(C(C)C)nc3=O)CC2)nc(C(C)(C)C)n1 [Example 98, 4-(2-tert-Butyl-6-propylpyrimidin-4-yl)-1-[4-(4-isopropyl-2-oxo-2H-pyrimidin-1-yl)butyl]piperazine 1-fumarate]"
3.31,62,CCCc1cc(N2CCN(C/C=C(\C)Cn3cc(C)c(=O)[nH]c3=O)CC2)nc(C(C)(C)C)n1 [Example 65]
1.02,134,"CCCc1cc(N2CCN(CCCCn3cc(C(F)(F)F)c(=O)[nH]c3=O)CC2)nc(C(C)(C)C)n1 [Example 56, 1-{4-[4-(2-tert-Butyl-6-propylpyrimidin-4-yl)piperazin-1-yl]butyl}-5-trifluoromethyl-1H-pyrimidine-2,4-dione]"
0.27,87,"Cc1cn(CCCCN2CCN(c3cccc(Cl)c3Cl)CC2)c(=O)[nH]c1=O [Example 135, 1-{4-[4-(2,3-Dichlorophenyl)piperazin-1-yl]butyl}-5-methyl-1H-pyrimidine-2,4-dione]"

# Continued, compound first:
Compound,Ki [1] [nM],Selectivity D3 vs. D2L* [2]
"CC(C)(C)c1nc(N2CCN(CCCCn3cc(Cl)c(=O)[nH]c3=O)CC2)cc(C(F)(F)F)n1 [Example 52, 1-{4-[4-(2-tert-Butyl-6-trifluoromethylpyrimidin-4-yl)piperazin-1-yl]butyl}-5-chloro-1H-pyrimidine-2,4-dione]",2.28,97
"CCCc1cc(N2CCN(C(C)CCCn3cc(C)c(=O)[nH]c3=O)CC2)nc(C(C)(C)C)n1.Cl (centres unmarked) [Example 38, 4-(2-tert-Butyl-6-propylpyrimidin-4-yl)-1-[1-methyl-4-(5-methyl-2,4-dioxo-3,4-dihydropyrimidin-1 (2H)-yl)butyl]piperazin-1-ium chloride]",5.33,103
"Cc1cc(N2CCN(CCCCn3cc(C)c(O)nc3=O)CC2)nc(C(C)(C)C)n1 [Example 29, 1-{4-[4-(2-tert-Butyl-6-methylpyrimidin-4-yl)piperazin-1-yl]butyl}-4-hydroxy-5-methylpyrimidin-2(1H)-one]",7.64,67
"1-{4-[4-(2,3-Dichlorophenyl)piperazin-1-yl]butyl}-5-methyl-1H-pyrimidine-2,4-dione [Example 82]",0.31,54
"CC(C)(C)c1cc(N2CCN(CCCCn3ccc(=O)[nH]c3=O)CC2)nc(C(C)(C)C)n1 [Example 33, 1-{4-[4-(2,6-di-tert-Butylpyrimidin-4-yl)piperazin-1-yl]butyl}pyrimidine-2,4(1H,3H)-dione]",0.7,42
"Cc1cn(CCCCN2CCN(c3cccc(C(F)(F)F)c3)CC2)c(=O)[nH]c1=O [Example 129, 5-Methyl-1-{4-[4-(3-trifluoromethylphenyl)piperazin-1-yl]butyl}-1H-pyrimidine-2,4-dione]",1.3,48
"CCCc1cc(N2CCN(CCCCn3ccc(-c4ccc(F)cc4)nc3=O)CC2)nc(C(C)(C)C)n1 [Example 44, 1-{4-[4-(2-tert-Butyl-6-propylpyrimidin-4-yl)piperazin-1-yl]butyl}-4-(4-fluorophenyl)-1H-pyrimidin-2-one]",0.63,158
"C/C(=C\CN1CCN(c2cc(C(F)(F)F)nc(C(C)(C)C)n2)CC1)Cn1cc(C)c(=O)[nH]c1=O [Example 36, 1-((2E)-4-{4-[2-tert-Butyl-6-(trifluoromethyl)pyrimidin-4-yl]piperazin-1-yl}-2-methylbut-2-en-1-yl)-5-methylpyrimidine-2,4(1H,3H)-dione]",3.82,209
